Source: US6869939B2, “Formulations containing amiodarone and sulfoalkyl ether cyclodextrin” (CyDex, Inc., priority 2002, dated 2005)
Read-outs that look alike come from different tables or passages of the source.

Experiments:
[1] = room temperature (not heated), pH 4.5
Source text: The following table can be used to predict the ratio of components required to achieve the indicated amiodarone concentrations at room temperature (not heated) and pH 4.5.

[2] = pH 4.5
Source text: The mixture can optionally further comprise a buffer or other charged species wherein the concentration of the buffer or other charged species is less than about 0.5M.

[3] = SBE7-β-CD 0.5% w/v (0.00231 Molar)
[4] = SBE7-β-CD 1% w/v (0.00462 Molar)
[5] = SBE7-β-CD 3% w/v (0.0139 Molar)
[6] = SBE7-β-CD 5% w/v (0.0231 Molar)
[7] = SBE7-β-CD 30% w/v (0.139 Molar)
[8] = SBE7-β-CD 50% w/v (0.231 Molar)
[9] = SBE7-β-CD 80% w/v (0.370 Molar), by extrapolation of phase solubility data

| Compound | Amiodarone (Ami) [1, 3] [mg/mL] | Amiodarone (Ami) Molar [1, 3] [Molar] | Amiodarone (Ami) [1, 4] [mg/mL] | Amiodarone (Ami) Molar [1, 4] [Molar] | Amiodarone (Ami) [1, 5] [mg/mL] | Amiodarone (Ami) Molar [1, 5] [Molar] | Amiodarone (Ami) [1, 6] [mg/mL] | Amiodarone (Ami) Molar [1, 6] [Molar] | Amiodarone (Ami) [1, 7] [mg/mL] | Amiodarone (Ami) Molar [1, 7] [Molar] | Amiodarone (Ami) [1, 8] [mg/mL] | Amiodarone (Ami) Molar [1, 8] [Molar] | Amiodarone (Ami) [1, 9] [mg/mL] | Amiodarone (Ami) Molar [1, 9] [Molar] | times SBE7-β-CD is more effective at solubilizing amiodarone than the named cyclodextrin [2] [times] |
| --- | --- | --- | --- | --- | --- | --- | --- | --- | --- | --- | --- | --- | --- | --- | --- |
| CCCCc1oc2ccccc2c1C(=O)c1cc(I)c(OCCN(CC)CC)c(I)c1.Cl [Amiodarone HCl, (2-butyl-3-benzofuranyl)[4-[2-(diethylamino)ethoxy]-3,5-diiodophenyl]methanone hydrochloride] | 0.482 | 0.000708 | 3.0 | 0.0045 | 20.6 | 0.03019 | 28.8 | 0.0423 | 53.8 | 0.079 | 72.2 | 0.106 | 100.8 | 0.148 |  |
| dimethyl-beta cyclodextrin [Methyl (DS˜14)] |  |  |  |  |  |  |  |  |  |  |  |  |  |  | 1.7 |
